Measurements reported in US10457654B2 (GENENTECH, INC., priority 2017, dated 2019).
Counter-ions that a name gives are not always drawn.

Target: T1, hNav1.7 (Homo sapiens (Human), UniProt Q15858)
Assay: Tritiated compound binding to membranes from cells expressing hNav1.7 and the β1 subunit, competitive binding (LBA, Ex. 243A)
Details: 100 pM [3H]compound, 18 h, room temperature; read-out: Nav1.7 (LBA) (Ex. 243A)
Target sequence in this assay (Q15858 whole entry, looked up): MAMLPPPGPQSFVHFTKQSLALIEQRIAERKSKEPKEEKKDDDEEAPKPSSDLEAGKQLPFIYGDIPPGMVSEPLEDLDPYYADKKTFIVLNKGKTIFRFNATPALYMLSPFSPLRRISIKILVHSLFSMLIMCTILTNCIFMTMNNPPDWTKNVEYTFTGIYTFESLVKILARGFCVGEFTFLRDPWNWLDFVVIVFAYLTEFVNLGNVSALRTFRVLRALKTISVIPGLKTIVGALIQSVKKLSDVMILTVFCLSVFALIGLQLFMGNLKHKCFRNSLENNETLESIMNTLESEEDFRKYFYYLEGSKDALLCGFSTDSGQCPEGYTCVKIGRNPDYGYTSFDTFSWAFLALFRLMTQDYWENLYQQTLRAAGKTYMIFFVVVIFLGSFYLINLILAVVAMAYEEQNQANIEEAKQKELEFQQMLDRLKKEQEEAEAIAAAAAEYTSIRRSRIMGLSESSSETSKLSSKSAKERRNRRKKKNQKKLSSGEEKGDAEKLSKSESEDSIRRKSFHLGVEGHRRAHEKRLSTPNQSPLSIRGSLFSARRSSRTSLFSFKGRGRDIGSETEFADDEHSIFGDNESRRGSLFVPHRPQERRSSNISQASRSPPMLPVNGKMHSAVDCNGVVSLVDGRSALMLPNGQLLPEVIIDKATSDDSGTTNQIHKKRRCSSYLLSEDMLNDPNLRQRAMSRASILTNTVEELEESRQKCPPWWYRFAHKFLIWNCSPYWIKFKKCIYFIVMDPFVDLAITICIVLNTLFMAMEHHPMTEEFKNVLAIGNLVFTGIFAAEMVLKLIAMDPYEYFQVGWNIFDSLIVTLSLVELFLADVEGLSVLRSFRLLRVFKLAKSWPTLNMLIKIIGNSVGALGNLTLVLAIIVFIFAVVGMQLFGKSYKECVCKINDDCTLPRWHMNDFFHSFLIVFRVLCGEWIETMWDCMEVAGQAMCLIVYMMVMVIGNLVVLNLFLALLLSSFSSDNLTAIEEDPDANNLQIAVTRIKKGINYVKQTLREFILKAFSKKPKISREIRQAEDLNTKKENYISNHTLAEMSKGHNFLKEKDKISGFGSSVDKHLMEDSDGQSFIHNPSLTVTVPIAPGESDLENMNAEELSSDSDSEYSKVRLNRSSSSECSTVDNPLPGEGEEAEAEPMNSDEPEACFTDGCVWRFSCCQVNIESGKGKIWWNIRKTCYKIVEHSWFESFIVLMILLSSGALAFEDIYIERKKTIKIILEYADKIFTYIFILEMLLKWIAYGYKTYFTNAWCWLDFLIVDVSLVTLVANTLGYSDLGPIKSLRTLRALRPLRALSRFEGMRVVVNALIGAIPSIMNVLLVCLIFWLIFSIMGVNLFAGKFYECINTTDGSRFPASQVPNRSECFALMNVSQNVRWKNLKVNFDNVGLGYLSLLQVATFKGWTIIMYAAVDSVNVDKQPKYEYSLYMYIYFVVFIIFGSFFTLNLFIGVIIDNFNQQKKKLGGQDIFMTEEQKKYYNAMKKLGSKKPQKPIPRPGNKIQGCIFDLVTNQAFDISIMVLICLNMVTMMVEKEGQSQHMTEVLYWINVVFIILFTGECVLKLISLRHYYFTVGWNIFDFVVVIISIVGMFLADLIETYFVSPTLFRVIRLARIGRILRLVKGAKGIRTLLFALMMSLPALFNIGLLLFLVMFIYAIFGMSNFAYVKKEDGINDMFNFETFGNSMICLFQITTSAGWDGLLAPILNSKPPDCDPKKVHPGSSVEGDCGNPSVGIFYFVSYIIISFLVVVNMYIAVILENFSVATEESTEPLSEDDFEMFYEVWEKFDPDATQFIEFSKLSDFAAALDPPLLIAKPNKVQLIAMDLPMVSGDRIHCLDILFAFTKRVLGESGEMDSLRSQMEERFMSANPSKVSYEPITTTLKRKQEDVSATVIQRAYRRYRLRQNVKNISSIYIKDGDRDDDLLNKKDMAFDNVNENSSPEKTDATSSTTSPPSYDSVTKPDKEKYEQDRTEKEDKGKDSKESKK
Target sequence in this assay (Q07699 whole entry partner, looked up): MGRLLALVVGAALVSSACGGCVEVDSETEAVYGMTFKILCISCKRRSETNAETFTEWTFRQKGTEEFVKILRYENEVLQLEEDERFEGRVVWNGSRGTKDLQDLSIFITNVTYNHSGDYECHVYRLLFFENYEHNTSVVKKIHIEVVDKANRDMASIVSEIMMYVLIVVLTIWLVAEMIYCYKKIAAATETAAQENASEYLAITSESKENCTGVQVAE

| SMILES | IC50 |
| --- | --- |
| CCN[C@H]1CCCC[C@@H]1Nc1cc(F)c(S(=O)(=O)Nc2nccs2)cc1Cl [Example 4, 2,2,2-trifluoroacetate] | 0.00415 µM |
| CN[C@H]1CCCC[C@@H]1Nc1cc(F)c(S(=O)(=O)Nc2nccs2)cc1Cl [Example 3, 5-chloro-2-fluoro-4-(((1S,2S)-2-(methylamino)cyclohexyl)amino)-N-(thiazol-2-yl)benzenesulfonamide 2,2,2-trifluoroacetate] | 0.016 µM |
| CN(C)[C@H]1CCCC[C@@H]1Nc1cc(F)c(S(=O)(=O)Nc2nccs2)cc1C1CC1 [Example 15, 5-cyclopropyl-4-[[(1S,2S)-2-(dimethylamino)cyclohexyl]amino]-2-fluoro-N-thiazol-2-yl-benzenesulfonamide] | 0.0269 µM |
| CN(C)[C@H]1CCCC[C@@H]1Nc1cc(F)c(S(=O)(=O)Nc2ccncn2)cc1Cl [Example 11, 5-chloro-4-(((1S,2S)-2-(dimethylamino)cyclohexyl)amino)-2-fluoro-N-(pyrimidin-4-yl)benzenesulfonamide] | 0.126 µM |
| CN(C)[C@H]1CCCC[C@@H]1Oc1cc(F)c(S(=O)(=O)Nc2nccs2)cc1Cl [Example 7, 5-chloro-4-(((1S,2S)-2-(dimethylamino)cyclohexyl)oxy)-2-fluoro-N-(thiazol-2-yl)benzenesulfonamide] | 0.0899 µM |
| CN(C)[C@@H]1CCC[C@H]1Oc1cc(F)c(S(=O)(=O)Nc2nccs2)cc1Cl [Example 10, 5-chloro-4-(((1R,2R)-2-(dimethylamino)cyclopentyl)oxy)-2-fluoro-N-(thiazol-2-yl)benzenesulfonamide] | 0.553 µM |
| CN(C)[C@@H]1CCCC[C@H]1Oc1cc(F)c(S(=O)(=O)Nc2nccs2)cc1Cl [Example 8, 5-chloro-4-(((1R,2R)-2-(dimethylamino)cyclohexyl)oxy)-2-fluoro-N-(thiazol-2-yl)benzenesulfonamide] | 3 µM |

Same assay, conditions: 100 pM [3H]compound, 18 h, room temperature; read-out: Nav1.7 LBA (Ex. 243A) IC50

| SMILES | IC50 |
| --- | --- |
| O=S(=O)(Nc1nccs1)c1cc(Cl)c(N[C@H]2CCCC[C@@H]2N2CCCC2)cc1F [Example 30, 5-chloro-2-fluoro-4-(((1S,2S)-2-(pyrrolidin-1-yl)cyclohexyl)amino)-N-(thiazol-2-yl)benzenesulfonamide] | 0.00973 µM |
| CN(C1CNC1)[C@H]1CCCC[C@@H]1Nc1cc(F)c(S(=O)(=O)Nc2ccncn2)cc1Cl [Example 53, 4-(((1S,2S)-2-(azetidin-3-yl(methyl)amino)cyclohexyl)amino)-5-chloro-2-fluoro-N-(pyrimidin-4-yl)benzenesulfonamide] | 0.0305 µM |
| CN1CC(N(C)[C@H]2CCCC[C@@H]2Nc2cc(F)c(S(=O)(=O)Nc3cccc(F)n3)cc2Cl)C1 [Example 63, 5-chloro-2-fluoro-N-(6-fluoropyridin-2-yl)-4-(((1S,2S)-2-(methyl(1-methylazetidin-3-yl)amino)cyclohexyl)amino)benzenesulfonamide] | 0.00981 µM |
| O=S(=O)(Nc1nccs1)c1cc(Cl)c(N[C@H]2CCCC[C@@H]2N2CCOCC2)cc1F [Example 101, 5-chloro-2-fluoro-4-(((1S,2S)-2-morpholinocyclohexyl)amino)-N-(thiazol-2-yl)benzenesulfonamide] | 0.0255 µM |
| O=S(=O)(Nc1ccncn1)c1cc(Cl)c(N[C@H]2CCCC[C@@H]2N2CCCC2)cc1F [Example 60, 5-chloro-2-fluoro-N-(pyrimidin-4-yl)-4-(((1S,2S)-2-(pyrrolidin-1-yl)cyclohexyl)amino)benzenesulfonamide] | 0.198 µM |
| CN(CCF)[C@H]1CCCC[C@@H]1Nc1cc(F)c(S(=O)(=O)Nc2nccs2)cc1Cl [Example 37, 5-chloro-2-fluoro-4-(((1S,2S)-2-((2-fluoroethyl)(methyl)amino)cyclohexyl)amino)-N-(thiazol-2-yl)benzenesulfonamide formate] | 0.00276 µM |
| COCCN(C)[C@H]1CCCC[C@@H]1Nc1cc(F)c(S(=O)(=O)Nc2nccs2)cc1Cl [Example 32, 5-chloro-2-fluoro-4-(((1S,2S)-2-((2-methoxyethyl)(methyl)amino)cyclohexyl)amino)-N-(thiazol-2-yl)benzenesulfonamide formate] | 0.0382 µM |
| CN(CCO)[C@H]1CCCC[C@@H]1Nc1cc(F)c(S(=O)(=O)Nc2cccc(F)n2)cc1Cl [Example 72, 5-chloro-2-fluoro-N-(6-fluoropyridin-2-yl)-4-(((1S,2S)-2-((2-hydroxyethyl)(methyl)amino)cyclohexyl)amino)benzenesulfonamide] | 0.0148 µM |
| CN(C)[C@H]1CCCC[C@@H]1Oc1cc(F)c(S(=O)(=O)Nc2nccs2)cc1C(F)(F)F [Example 78, 4-(((1S,2S)-2-(dimethylamino)cyclohexyl)oxy)-2-fluoro-N-(thiazol-2-yl)-5-(trifluoromethyl)benzenesulfonamide formate] | 0.0956 µM |
| CN(CC1CC1)[C@H]1CCCC[C@@H]1Nc1cc(F)c(S(=O)(=O)Nc2nccs2)cc1Cl [Example 31, 5-chloro-4-(((1S,2S)-2-((cyclopropylmethyl)(methyl)amino)cyclohexyl)amino)-2-fluoro-N-(thiazol-2-yl)benzenesulfonamide] | 0.163 µM |
| CN(C)[C@H]1CCCC[C@@H]1Nc1ccc(S(=O)(=O)Nc2nccs2)cc1[N+](=O)[O-] [Example 28, 4-(((1S,2S)-2-(dimethylamino)cyclohexyl)amino)-3-nitro-N-(thiazol-2-yl)benzenesulfonamide] | 0.199 µM |
| CN(C)[C@H]1CCCC[C@@H]1Nc1cc(F)c(S(=O)(=O)Nc2ncc(F)s2)cc1Cl [Example 49, 5-chloro-4-(((1S,2S)-2-(dimethylamino)cyclohexyl)amino)-2-fluoro-N-(5-fluorothiazol-2-yl)benzenesulfonamide] | 0.0421 µM |
| O=S(=O)(Nc1nccs1)c1cc(Cl)c(N[C@H]2CCCC[C@@H]2N2CCC(F)C2)cc1F (stereo partly drawn) [Example 104, 5-chloro-2-fluoro-4-(((1S,2S)-2-(3-fluoropyrrolidin-1-yl)cyclohexyl)amino)-N-(thiazol-2-yl)benzenesulfonamide] | 0.0356 µM |
| Cc1csc(NS(=O)(=O)c2cc(Cl)c(N[C@H]3CCCC[C@@H]3N3CCCC3)cc2F)n1 [Example 92, 5-chloro-2-fluoro-N-(4-methylthiazol-2-yl)-4-(((1S,2S)-2-(pyrrolidin-1-yl)cyclohexyl)amino)benzenesulfonamide formate] | 0.118 µM |
| CCN[C@H]1CCCC[C@@H]1Oc1cc(F)c(S(=O)(=O)Nc2ccncn2)cc1C1CC1 [Example 96, 5-cyclopropyl-4-(((1S,2S)-2-(ethylamino)cyclohexyl)oxy)-2-fluoro-N-(pyrimidin-4-yl)benzenesulfonamide] | 0.63 µM |
| O=S(=O)(Nc1ccncn1)c1cc(Cl)c(N[C@H]2CCCC[C@@H]2N2CCC(O)C2)cc1F (stereo partly drawn) [Example 61, 5-chloro-2-fluoro-4-(((1S,2S)-2-(3-hydroxypyrrolidin-1-yl)cyclohexyl)amino)-N-(pyrimidin-4-yl)benzenesulfonamide] | 0.558 µM |
| CN(C)[C@H]1CCCC[C@@H]1Nc1cc(F)c(S(=O)(=O)Nc2nccs2)cc1C(F)(F)F [Example 65, 4-(((1S,2S)-2-(dimethylamino)cyclohexyl)amino)-2-fluoro-N-(thiazol-2-yl)-5-(trifluoromethyl)benzenesulfonamide] | 0.0293 µM |
| O=S(=O)(Nc1nccs1)c1cc(Cl)c(N[C@H]2CCCC[C@@H]2N2CC(O)C2)cc1F [Example 47, 5-chloro-2-fluoro-4-(((1 S,2S)-2-(3-hydroxyazetidin-1-yl)cyclohexyl)amino)-N-(thiazol-2-yl)benzenesulfonamide] | 0.529 µM |
| CC(O)CN(C)[C@H]1CCCC[C@@H]1Nc1cc(F)c(S(=O)(=O)Nc2nccs2)cc1Cl (stereo partly drawn) [Example 45, 5-chloro-2-fluoro-4-(((1 S,2S)-2-((2-hydroxypropyl)(methyl)amino)cyclohexyl)amino)-N-(thiazol-2-yl)benzenesulfonamide] | 0.0127 µM |
| CN(C)[C@H]1CCCC[C@@H]1Nc1cc(F)c(S(=O)(=O)Nc2nccs2)cc1C1CCC1 [Example 91, 5-cyclobutyl-4-(((1S,2S)-2-(dimethylamino)cyclohexyl)amino)-2-fluoro-N-(thiazol-2-yl)benzenesulfonamide] | 0.013 µM |
| CN(C1CNC1)[C@H]1CCCC[C@@H]1Nc1cc(F)c(S(=O)(=O)Nc2nccs2)cc1C1CC1 [Example 57, 4-(((1S,2S)-2-(azetidin-3-yl(methyl)amino)cyclohexyl)amino)-5-cyclopropyl-2-fluoro-N-(thiazol-2-yl)benzenesulfonamide dihydrochloride] | 0.00242 µM |
| O=S(=O)(Nc1cccc(F)n1)c1cc(Cl)c(N[C@H]2CCCC[C@@H]2N2CCCC2)cc1F [Example 99, 5-chloro-2-fluoro-N-(6-fluoropyridin-2-yl)-4-(((1S,2S)-2-(pyrrolidin-1-yl)cyclohexyl)amino)benzenesulfonamide] | 0.0655 µM |
| CN1CC(N(C)[C@H]2CCCC[C@@H]2Nc2cc(F)c(S(=O)(=O)Nc3nccs3)cc2Cl)C1 [Example 41, 5-chloro-2-fluoro-4-(((1S,2S)-2-(methyl(1-methylazetidin-3-yl)amino)cyclohexyl)amino)-N-(thiazol-2-yl)benzenesulfonamide formate] | 0.00451 µM |
| CN(C)[C@@H]1C[C@@H](C(F)(F)F)CC[C@H]1Nc1cc(F)c(S(=O)(=O)Nc2nccs2)cc1Cl [Example 81, 5-chloro-4-(((1R,2R,4S)-2-(dimethylamino)-4-(trifluoromethyl)cyclohexyl)amino)-2-fluoro-N-(thiazol-2-yl)benzenesulfonamide] | 1.74 µM |

Target: T1, hNav1.7
Assay: Patch voltage clamp electrophysiology assay (EP), Syncropatch 384PE, CHO cells expressing Nav1.7
Assay type: cell-based
Details: holding potential -50 mV; […] compound incubation; read-out: EP_SP hNav1.7 (Ex. 243B) IC50
Outline: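 Automated whole-cell patch clamp on CHO cells stably expressing human Nav1.7, CsCl/EGTA internal and NMDG/80 mM Na+ external (pH 7.4). From −50 mV holding, −10 mV step, 20 ms recovery at −150 mV, then second −10 mV pulse where block is measured; inhibition after 7.5 min compound incubation.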
Target sequence in this assay (Q15858 other isoform, or with tags, fused parts or gaps): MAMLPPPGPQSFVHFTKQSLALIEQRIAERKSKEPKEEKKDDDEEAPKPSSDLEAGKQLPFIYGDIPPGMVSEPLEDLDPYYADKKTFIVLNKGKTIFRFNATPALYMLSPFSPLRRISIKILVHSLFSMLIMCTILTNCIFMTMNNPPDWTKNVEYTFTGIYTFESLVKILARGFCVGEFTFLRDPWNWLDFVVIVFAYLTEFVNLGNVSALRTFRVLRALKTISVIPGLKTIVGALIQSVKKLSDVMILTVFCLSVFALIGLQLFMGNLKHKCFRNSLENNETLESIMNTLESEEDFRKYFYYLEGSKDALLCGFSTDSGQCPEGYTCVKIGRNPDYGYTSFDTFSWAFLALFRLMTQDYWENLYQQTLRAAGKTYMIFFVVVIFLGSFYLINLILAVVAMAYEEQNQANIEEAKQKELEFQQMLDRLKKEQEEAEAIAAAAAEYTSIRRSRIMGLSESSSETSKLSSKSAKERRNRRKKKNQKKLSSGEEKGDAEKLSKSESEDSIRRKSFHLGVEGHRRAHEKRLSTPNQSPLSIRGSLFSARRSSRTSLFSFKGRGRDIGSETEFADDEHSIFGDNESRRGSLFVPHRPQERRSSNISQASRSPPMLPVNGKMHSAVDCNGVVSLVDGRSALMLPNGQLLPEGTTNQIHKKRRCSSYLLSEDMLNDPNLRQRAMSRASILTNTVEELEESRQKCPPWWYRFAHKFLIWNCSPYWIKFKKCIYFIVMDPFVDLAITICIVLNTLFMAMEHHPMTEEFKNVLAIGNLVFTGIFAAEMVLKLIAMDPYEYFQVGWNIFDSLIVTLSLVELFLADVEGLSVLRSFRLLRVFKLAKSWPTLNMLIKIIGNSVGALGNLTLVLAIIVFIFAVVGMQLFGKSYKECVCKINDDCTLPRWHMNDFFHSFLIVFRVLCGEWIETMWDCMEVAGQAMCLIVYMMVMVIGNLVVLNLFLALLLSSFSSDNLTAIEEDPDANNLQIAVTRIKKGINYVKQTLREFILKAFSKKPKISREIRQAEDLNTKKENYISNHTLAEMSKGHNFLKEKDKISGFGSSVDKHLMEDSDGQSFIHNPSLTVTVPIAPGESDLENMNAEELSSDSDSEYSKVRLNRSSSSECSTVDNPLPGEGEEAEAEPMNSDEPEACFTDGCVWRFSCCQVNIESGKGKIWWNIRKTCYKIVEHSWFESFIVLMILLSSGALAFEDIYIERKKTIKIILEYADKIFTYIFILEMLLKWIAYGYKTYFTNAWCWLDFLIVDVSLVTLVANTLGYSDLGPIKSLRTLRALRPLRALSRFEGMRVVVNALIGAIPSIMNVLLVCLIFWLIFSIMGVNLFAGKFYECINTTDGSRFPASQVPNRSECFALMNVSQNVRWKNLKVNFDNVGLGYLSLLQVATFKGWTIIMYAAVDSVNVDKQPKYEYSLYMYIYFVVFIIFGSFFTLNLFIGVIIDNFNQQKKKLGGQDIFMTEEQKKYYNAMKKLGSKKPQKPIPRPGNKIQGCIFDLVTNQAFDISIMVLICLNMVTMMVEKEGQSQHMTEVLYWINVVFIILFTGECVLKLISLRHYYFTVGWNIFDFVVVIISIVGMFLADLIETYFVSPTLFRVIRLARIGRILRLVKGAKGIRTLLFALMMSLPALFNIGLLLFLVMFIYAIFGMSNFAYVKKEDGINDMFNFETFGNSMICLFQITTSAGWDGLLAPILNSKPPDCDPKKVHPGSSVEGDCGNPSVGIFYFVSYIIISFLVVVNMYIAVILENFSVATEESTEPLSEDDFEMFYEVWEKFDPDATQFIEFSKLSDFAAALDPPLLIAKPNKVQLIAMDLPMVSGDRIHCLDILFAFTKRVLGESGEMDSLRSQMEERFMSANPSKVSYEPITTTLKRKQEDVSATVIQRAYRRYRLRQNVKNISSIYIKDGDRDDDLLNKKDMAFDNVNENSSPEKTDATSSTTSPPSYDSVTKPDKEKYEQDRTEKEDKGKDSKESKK

| SMILES | IC50 |
| --- | --- |
| O=S(=O)(Nc1nccs1)c1cc(Cl)c(N[C@H]2CCCC[C@@H]2N2CCCC2)cc1F [Example 30, 5-chloro-2-fluoro-4-(((1S,2S)-2-(pyrrolidin-1-yl)cyclohexyl)amino)-N-(thiazol-2-yl)benzenesulfonamide] | 0.00977 µM |
| CN(C1CNC1)[C@H]1CCCC[C@@H]1Nc1cc(F)c(S(=O)(=O)Nc2ccncn2)cc1Cl [Example 53, 4-(((1S,2S)-2-(azetidin-3-yl(methyl)amino)cyclohexyl)amino)-5-chloro-2-fluoro-N-(pyrimidin-4-yl)benzenesulfonamide] | 0.00569 µM |
| CN1CC(N(C)[C@H]2CCCC[C@@H]2Nc2cc(F)c(S(=O)(=O)Nc3cccc(F)n3)cc2Cl)C1 [Example 63, 5-chloro-2-fluoro-N-(6-fluoropyridin-2-yl)-4-(((1S,2S)-2-(methyl(1-methylazetidin-3-yl)amino)cyclohexyl)amino)benzenesulfonamide] | 0.00535 µM |
| COCCN(C)[C@H]1CCCC[C@@H]1Nc1cc(F)c(S(=O)(=O)Nc2nccs2)cc1Cl [Example 32, 5-chloro-2-fluoro-4-(((1S,2S)-2-((2-methoxyethyl)(methyl)amino)cyclohexyl)amino)-N-(thiazol-2-yl)benzenesulfonamide formate] | 0.0246 µM |
| CN1CC(N(C)[C@H]2CCCC[C@@H]2Nc2cc(F)c(S(=O)(=O)Nc3nccs3)cc2Cl)C1 [Example 41, 5-chloro-2-fluoro-4-(((1S,2S)-2-(methyl(1-methylazetidin-3-yl)amino)cyclohexyl)amino)-N-(thiazol-2-yl)benzenesulfonamide formate] | 0.0034 µM |
